This note sets out measurements from patent publication EP2650000A1, “Utilization of copper complexes involving 2-phenyl-3-hydroxy-4(1H)-quinolinone and 1,10-phenanthroline derivatives for the preparation of drugs for the treatment of tumour diseases” (Univerzita Palackeho, priority 2012, dated 2013).

Each structure is given as a SMILES string.

What all share (format): cell-based
Test [1] relates to human lung adenocarcinoma cell line (A549). Description: MTT assay, in vitro anticancer activity, A549. Conditions: A549 cells, 24 hours incubation, read-out: inhibition concentrations IC50. The method, then:
(§1) The in vitro anticancer activity of the prepared complexes listed as the examples below was determined by the MTT assay. The method is based on the ability of metabolic-active cells to reduce (by mitochondrial dehydrogenases) the yellow tetrazolium dye (3-(4,5-dimethylthiazol-2-yl)-2,5-diphenyltetrazolium bromide (MTT)) to the blue formazane end-product. Because the reduction proceeds only in the living cells, the cytotoxicity of various compounds can be determined using this process. The water-insoluble formazane is quantified after dissolving in dimethyl sulfoxide (DMSO) with the solution of ammonia on a spectrophotometer (ELISA reader). The in vitro anticancer activity testing was performed on the following human cancer cell lines: lung adenocarcinoma (A549), cervix epitheloid carcinoma (HeLa), malignant melanoma (G361), ovarian carcinoma (A2780), cisplatin-resistant ovarian carcinoma (A2780R) and prostate carcinoma (LNCaP). The cell lines were maintained in plastic vessels in the DMEM medium (5 g/l glucose, 2 mM glutamine, 100 U/mL penicillin, 100 µg/mL streptomycin, 10% foetal calf serum and sodium bicarbonate) for cell cultures. The 80 µL of cell suspensions (ca. 1.25 × 10^5 cells per mL) were pipetted onto 96-well plastic microtitration plates. These were further pre-incubated at 37 °C in the CO2 atmosphere for 24 hours. The tested copper complexes and cisplatin, used as positive and therapeutic standard, were dissolved in N,N'-dimetylformamide in the concentrations up to 50 mM which served as stock solutions. For the experiment, the stock solutions were diluted 1000 x in the incubation medium (maximum concentration of 50.0 µM). After removal of the cultivation media, the mixtures of appropriate concentration were added to the cancer cells for the incubation period of 24 hours. The MTT analysis was performed spectrophotometrically (TECAN, Schoeller Instruments LLC) at 540 nm.
(§2) The concentrations of the tested complexes (µM) toxic for 50% of cancer cells (inhibition concentration IC50) were calculated from the dose-response curves.
The determination of in vitro anticancer activity of the studied compounds 1-6 and cisplatin against human lung adenocarcinoma cell line (A549) was performed by the MTT assay.
On the technique in general: Tetrazolium dyes change colour on reduction, which living cells bring about.

In test [2] the test system is human malignant melanoma cancer cell line (G361). Description: MTT assay, in vitro anticancer activity, G361. Conditions: G361 cells, 24 hours incubation, read-out: inhibition concentrations IC50. The procedure:
as §1, with “The 80 µL of cell suspensions (ca. 1.25 × 10^5 cells per mL) were pipetted onto 96-well plastic microtitration plates.” left out

Test [3] relates to human cervix epitheloid carcinoma cell line (HeLa). The test can be described thus: MTT assay, in vitro anticancer activity, HeLa. Conditions: HeLa cells, 24 hours incubation, read-out: inhibition concentrations IC50. The method, then: as §1, §2
The determination of in vitro anticancer activity of the studied compounds 1-6 and cisplatin against human cervix epitheloid carcinoma cell line (HeLa) was performed by the MTT assay.

In test [4] the test system is human ovarian carcinoma cell line (A2780). The test can be described thus: MTT assay, in vitro anticancer activity, A2780. Conditions: A2780 cells, 24 hours incubation, read-out: inhibition concentrations IC50. The method, then:
as §1, §2
The determination of in vitro anticancer activity of the studied compounds 1-6 and cisplatin against human ovarian carcinoma cell line (A2780) was performed by the MTT assay.

For test [5], the system named is human cisplatin-resistant ovarian carcinoma cell line (A2780R). The test can be described thus: MTT assay, in vitro anticancer activity, A2780R. Conditions: A2780R cells, 24 hours incubation, read-out: inhibition concentrations IC50. The method, then:
as §1, §2
The determination of in vitro anticancer activity of the studied compounds 1-6 and cisplatin against human cisplatin-resistant ovarian carcinoma cell line (A2780R) was performed by the MTT assay.

For test [6], the system named is human prostate carcinoma cell line (LNCaP). Description: MTT assay, in vitro anticancer activity, LNCaP. The conditions noted are these: LNCaP cells, 24 hours incubation, read-out: inhibition concentrations IC50. The method, then:
as §1, §2
The determination of in vitro anticancer activity of the studied compounds 1-6 and cisplatin against human prostate carcinoma cell line (LNCaP) was performed by the MTT assay.

Consider `N.N.[Cl][Pt][Cl]` [cisplatin, cis-diammine-dichlorido platinum(II) complex, reference compound], for which the IC50 in test [1] was found to be 25.8 ± 7.1 µM; in test [2], 3.4 ± 0.1 µM; in test [3] it was 10 ± 2.6 µM; in test [4], 12 ± 0.8 µM; in test [5], 27 ± 4.6 µM; in test [6], 3.8 ± 1.5 µM.
As for `F[B-](F)(F)F.O=c1c([O-])c(-c2ccccc2)[nH]c2ccccc12.[Cu+2].c1ccc(-c2ccnc3c2ccc2c(-c4ccccc4)ccnc23)cc1` [complex 6, (2-phenyl-4-oxo-1,4-dihydroquinolin-3-olato-κ^2O^3:O^4) (4,7-diphenyl-1,10-phenanthroline-κ^2N^1:N^10) copper(II) tetrafluoroborate], the IC50 in test [1] was determined as 1.3 ± 0.4 µM; in test [2], 0.72 ± 0.06 µM; in test [3], 1.3 ± 0.4 µM; in test [4], 0.57 ± 0.11 µM; in test [5] it was 0.7 ± 0.2 µM; in test [6], 0.62 ± 0.08 µM.
`O=[N+]([O-])[O-].O=c1c([O-])c(-c2ccccc2)[nH]c2ccccc12.[Cu+2].c1ccc(-c2ccnc3c2ccc2c(-c4ccccc4)ccnc23)cc1` [complex 3, (2-phenyl-4-oxo-1,4-dihydroquinolin-3-olato-κ^2O^3:O^4)(4,7-diphenyl-1,10-phenanthroline-κ^2N^1:N^10)copper(II) nitrate monohydrate]: the IC50 was 1.7 ± 0.3 µM in test [1]; 0.96 ± 0.03 µM in test [2]; 1 ± 0.2 µM in test [3]; 0.66 ± 0.07 µM in test [4]; 0.73 ± 0.09 µM in test [5]; 0.74 ± 0.21 µM in test [6].
Regarding `O=[N+]([O-])[O-].O=c1c([O-])c(-c2ccccc2)[nH]c2ccccc12.[Cu+2].c1cnc2c(c1)ccc1cccnc12` [complex 1, (2-phenyl-4-oxo-1,4-dihydroquinolin-3-olato-κ^2O^3:O^4)(1,10-phenanthroline-κ^2N^1:N^10)copper(II) nitrate monohydrate], the IC50 amounted to 2.5 ± 0.4 µM in test [1]; 0.82 ± 0.15 µM in test [2]; 2.9 ± 0.3 µM in test [3]; 0.65 ± 0.28 µM in test [4]; 0.83 ± 0.3 µM in test [5]; 2.4 ± 0.6 µM in test [6].
As for `F[B-](F)(F)F.O=c1c([O-])c(-c2ccccc2)[nH]c2ccccc12.[Cu+2].c1cnc2c(c1)ccc1cccnc12` [complex 4, (2-phenyl-4-oxo-1,4-dihydroquinolin-3-olato-κ^2O^3:O^4) (1,10-phenanthroline-κ^2N^1:N^10)copper(II) tetrafluoroborate], the IC50 turned out to be 3.9 ± 1.2 µM in test [1]; 0.64 ± 0.2 µM in test [2]; 2.7 ± 0.6 µM in test [3]; 0.52 ± 0.1 µM in test [4]; 1.7 ± 0.6 µM in test [5]; 1.9 ± 0.6 µM in test [6].
As for `Cc1cc2cccnc2c2ncccc12.F[B-](F)(F)F.O=c1c([O-])c(-c2ccccc2)[nH]c2ccccc12.[Cu+2]` [complex 5, (2-phenyl-4-oxo-1,4-dihydroquinolin-3-olato-K^2O^3:O^4)(5-methyl-1,10-phenanthroline-κ^2N^1:N^10)copper(II) tetrafluoroborate monohydrate], the IC50 in test [1] stood at 2.5 ± 0.6 µM; in test [2] it was 0.53 ± 0.09 µM; in test [3] it was 2.4 ± 1 µM; in test [4] it was 0.36 ± 0.05 µM; in test [5], 0.56 ± 0.15 µM; in test [6], 1.5 ± 0.6 µM.
On to `Cc1cc2cccnc2c2ncccc12.O=[N+]([O-])[O-].O=c1c([O-])c(-c2ccccc2)[nH]c2ccccc12.[Cu+2]` [complex 2, (2-phenyl-4-oxo-1,4-dihydroquinolin-3-olato-κ^2O^3:O^4)(5-methyl-1,10-phenanthroline-κ^2N^1:N^10)copper(II) nitrate monohydrate], for which the IC50 in test [1] turned out to be 2.5 ± 0.6 µM; in test [2], 0.53 ± 0.22 µM; in test [3], 2.6 ± 0.4 µM; in test [4] it was 0.38 ± 0.03 µM; in test [5], 0.78 ± 0.07 µM; in test [6] it was 2.1 ± 0.6 µM.
